Data: ChEMBL document CHEMBL1152415, “Potent antitumor bifunctional DNA alkylating agents, synthesis and biological activities of 3a-aza-cyclopenta[a]indenes” (Bioorg Med Chem, 2009)
Calls of active or inactive are those of the source. The calls are words filed in the database; no cut-off is given here.

Key:
CCRF-CEM [1] = assay: Cytotoxicity against human vinblastine-resistant CCRF-CEM cells after 72 hrs by XTT assay; format: functional, cell-based
CCRF-CEM [2] = assay: Cytotoxicity against human CCRF-CEM cells after 72 hrs by XTT assay; format: functional, cell-based; conditions: read-out: IC50
CCRF-CEM [3] = assay: Cytotoxicity against human taxol-resistant CCRF-CEM cells after 72 hrs by XTT assay; format: functional, cell-based
CCRF-CEM [4] = assay: Cross-resistance, IC50 for human vinblastine-resistant CCRF-CEM cells to IC50 for human CCRF-CEM cells; format: functional
CCRF-CEM [5] = assay: Cross-resistance, IC50 for human taxol-resistant CCRF-CEM cells to IC50 for human CCRF-CEM cells; format: functional
MX1 [6] = assay: Cytotoxicity against human MX1 cells after 72 hrs by SRB assay; format: functional, cell-based; conditions: MX1, 72 h
HCT-116 = assay: Cytotoxicity against human HCT116 cells after 72 hrs by SRB assay; format: functional, cell-based; conditions: HCT-116, 72 h
[7] = Cytotoxicity against human H1299 cells after 72 hrs by WST-1 assay; format: functional, cell-based; conditions: NCI-H1299, 72 h
[8] = Cytotoxicity against human OECM1 cells after 72 hrs by WST-1 assay; format: functional, cell-based; conditions: OECM1, 72 h
PC-3 [9] = assay: Cytotoxicity against human PC3 cells after 72 hrs by WST-1 assay; format: functional, cell-based; conditions: PC-3, 72 h
[10] = Cytotoxicity against human U87 cells after 72 hrs by WST-1 assay; format: functional, cell-based, U-87MG ATCC; conditions: U-87 MG
[11] = Toxicity in athymic nu/nu mouse assessed as maximum tolerated dose; format: organism-based; conditions: in vivo, read-out: Activity
MX1 [12] = assay: Antitumor activity in human MX1 cells xenografted athymic nu/nu mouse assessed as complete remission of tumor at 50 mg/kg, iv administered daily once for 3 days; format: functional, organism-based; set-up: dose 50 mg/kg
MX1 [13] = assay: Antitumor activity in human MX1 cells xenografted athymic nu/nu mouse assessed as complete remission of tumor at 5 mg/kg, iv administered daily once for 3 days; format: functional, organism-based; set-up: dose 5 mg/kg
MX1 [14] = assay: Antitumor activity in human MX1 cells xenografted athymic nu/nu mouse assessed as complete remission of tumor at 18 mg/kg, iv administered daily twice for 2 days; format: functional, organism-based; set-up: dose 18 mg/kg
MX1 [15] = assay: Antitumor activity in human MX1 cells xenografted athymic nu/nu mouse assessed as complete remission of tumor at 15 mg/kg, iv administered daily twice for 4 days; format: functional, organism-based; set-up: dose 15 mg/kg
MX1 [16] = assay: Antitumor activity in human MX1 cells xenografted athymic nu/nu mouse assessed as complete remission of tumor at 5 mg/kg, iv administered daily once for 3 days measured after 22 days of tumor implantation; format: functional, organism-based; set-up: dose 5 mg/kg
Nucleic Acid [17] = assay: Induction of pEGFP-N1 plasmid DNA interstrand cross-linking at 1 uM after 2 hrs by alkaline agarose gel shift assay; format: nucleic-acid assay
Nucleic Acid [18] = assay: Induction of pEGFP-N1 plasmid DNA interstrand cross-linking at 10 uM after 2 hrs by alkaline agarose gel shift assay; format: nucleic-acid assay
Nucleic Acid [19] = assay: Induction of pEGFP-N1 plasmid DNA interstrand cross-linking at 20 uM after 2 hrs by alkaline agarose gel shift assay; format: nucleic-acid assay
MX1 [20] = assay: Antitumor activity in human MX1 cells xenografted athymic nu/nu mouse assessed as complete remission of tumor at 15 mg/kg, iv administered daily twice for 4 days measured after 18 days of tumor implantation; format: functional, organism-based; set-up: dose 15 mg/kg
MX1 [21] = assay: Antitumor activity in human MX1 cells xenografted athymic nu/nu mouse assessed as complete remission of tumor at 50 mg/kg, iv administered daily once for 3 days measured after 24 days of tumor implantation; format: functional, organism-based; set-up: dose 50 mg/kg
MX1 [22] = assay: Antitumor activity in human MX1 cells xenografted athymic nu/nu mouse assessed as tumor re-growth at 50 mg/kg, iv administered daily once for 3 days measured after 24 days of tumor implantation; format: functional, organism-based; set-up: dose 50 mg/kg
PC-3 [23] = assay: Antitumor activity in human PC3 cells xenografted athymic nu/nu mouse assessed as complete tumor suppression at 50 mg/kg, iv administered daily once for 4 days measured after day 14 to day 32; format: functional, organism-based; set-up: dose 50 mg/kg
Mus musculus = assay: Toxicity in human PC3 cells xenografted athymic nu/nu mouse assessed as weight loss at 50 mg/kg, iv administered daily once for 4 days measured after day 14 to day 32 relative to control; format: organism-based, PC-3; set-up: dose 50 mg/kg, route intravenous; conditions: in vivo, 96 h
SK-OV-3 = assay: Antitumor activity in human SKOV3 cells xenografted athymic nu/nu mouse assessed as tumor suppression at 50 mg/kg, iv administered daily once for 3 days measured after 22 days relative to control; format: functional

Row | SMILES | IC50 (CCRF-CEM [1]) [µM] | IC50 (CCRF-CEM [2]) [µM] | IC50 (CCRF-CEM [3]) [µM] | Ratio IC50 (CCRF-CEM [4]) | Ratio IC50 (CCRF-CEM [5]) | IC50 (MX1 [6]) [µM] | IC50 (HCT-116) [µM] | IC50 [7] [µM] | IC50 [8] [µM] | IC50 (PC-3 [9]) [µM] | IC50 [10] [µM] | MTD [11] [mg/kg] | Activity (MX1 [12]) | Activity (MX1 [13]) | Activity (MX1 [14]) | Activity (MX1 [15]) | Activity (Nucleic Acid [17]) | Activity (Nucleic Acid [18]) | Activity (Nucleic Acid [19]) | also measured
1 | CNC(=O)OCc1c(COC(=O)NC)c(-c2ccc(OC)cc2)n2c1Cc1ccccc1-2 | 0.063 | 0.049 | 0.07 | 1.3 | 1.4 | 1.9 | 2.6 | 42.6 | 4.63 | 38.2 | 34.4 | 5 | Active | Active | Active | Active | Active | Active | Active | Activity (MX1 [16]): Active
2 | CNC(=O)OCc1c(COC(=O)NC)c(-c2ccccc2OC)n2c1Cc1ccccc1-2 | 0.36 | 0.14 | 0.25 | 2.7 | 1.8 | 1.3 | 0.15 |  |  |  |  | 15 | Active | Active | Active | Active | Active | Active | Active | Activity (MX1 [20]): Active
3 | CCc1c(CO)c(CO)c2n1-c1ccccc1C2 | 0.23 | 0.36 | 0.14 | 0.64 | 0.39 | 1.1 | 0.83 | 14.1 | 1.24 | 16.6 | 18.2 | 50 | Active | Active | Active | Active | Active | Active | Active | Activity (MX1 [21]): Active; Activity (MX1 [22]): inactive; Activity (PC-3 [23]): Active; Activity (Mus musculus): 15%; Activity (SK-OV-3): 78%
